Results published in ChEMBL document CHEMBL3885861, “Open TG-GATES”.

Species: Rattus norvegicus
Assay: Open TG-GATES - Regimen: Single
Assay type: toxicity, organism-based, Sprague-Dawley
Design: regimen Single, gender Male, age 6 weeks
Details: in vivo, po, 24 h, route gavage; for Bas / Eos / Hb / Ht / Lym / MCH / MCHC / MCV / Mono / Neu / Plat / RBC / Ret / WBC: tissue Blood; for KIDNEY_L / KIDNEY_R / KIDNEY_TOTAL: tissue Kidney; for LIVER: tissue Liver; for A/G / ALP / ALT / AST / BUN / CRE / Ca / Cl / DBIL / GLC / IP / K / Na / PL / RALB / TBIL / TC / TG / TP / gamma-GTP: tissue Plasma

SMILES: COc1cc2c(c3oc(=O)c4c(c13)CCC4=O)[C@@H]1C=CO[C@@H]1O2 [AFLATOXIN]
- TERMINAL_BW (3 mg/kg, dose level Middle): 219.9 g
- Bas (3 mg/kg, dose level Middle): 0%
- Eos (3 mg/kg, dose level Middle): 0.4%
- Hb (3 mg/kg, dose level Middle): 13.4 g/dL
- Ht (3 mg/kg, dose level Middle): 39.5%
- Lym (3 mg/kg, dose level Middle): 74.2%
- MCH (3 mg/kg, dose level Middle): 20.1 pg
- MCHC (3 mg/kg, dose level Middle): 33.8%
- MCV (3 mg/kg, dose level Middle): 59.5 fL
- Mono (3 mg/kg, dose level Middle): 5.2%
- Neu (3 mg/kg, dose level Middle): 18.6%
- Plat (3 mg/kg, dose level Middle): 114.1 x10_4/uL
- RBC (3 mg/kg, dose level Middle): 663 x10_4/ul
- Ret (3 mg/kg, dose level Middle): 8.5%
- WBC (3 mg/kg, dose level Middle): 84.9 x10_2/uL
- KIDNEY_L (3 mg/kg, dose level Middle): 0.9 g
- KIDNEY_R (3 mg/kg, dose level Middle): 0.9 g
- KIDNEY_TOTAL (3 mg/kg, dose level Middle): 1.9 g
- LIVER (3 mg/kg, dose level Middle): 10.1 g
- A/G (3 mg/kg, dose level Middle): 1
- ALP (3 mg/kg, dose level Middle): 1736.6 IU/L
- ALT (3 mg/kg, dose level Middle): 135 IU/L
- AST (3 mg/kg, dose level Middle): 232 IU/L
- BUN (3 mg/kg, dose level Middle): 15.8 mg/dL
- CRE (3 mg/kg, dose level Middle): 0.2 mg/dL
- Ca (3 mg/kg, dose level Middle): 10.7 mg/dL
- Cl (3 mg/kg, dose level Middle): 105.1 meq/L
- DBIL (3 mg/kg, dose level Middle): 0.012 mg/dL
- GLC (3 mg/kg, dose level Middle): 167.8 mg/dL
- IP (3 mg/kg, dose level Middle): 8.1 mg/dL
- K (3 mg/kg, dose level Middle): 4.4 meq/L
- Na (3 mg/kg, dose level Middle): 139.3 meq/L
- PL (3 mg/kg, dose level Middle): 168 mg/dL
- RALB (3 mg/kg, dose level Middle): 2.7 g/dL
- TBIL (3 mg/kg, dose level Middle): 0.01 mg/dL
- TC (3 mg/kg, dose level Middle): 84.4 mg/dL
- TG (3 mg/kg, dose level Middle): 112.4 mg/dL
- TP (3 mg/kg, dose level Middle): 5.5 g/dL
- gamma-GTP (3 mg/kg, dose level Middle): 1.5 IU/L
- TERMINAL_BW (10 mg/kg, dose level High): 214.9 g
- Bas (10 mg/kg, dose level High): 0%
- Eos (10 mg/kg, dose level High): 0.6%
- Hb (10 mg/kg, dose level High): 14 g/dL
- Ht (10 mg/kg, dose level High): 40.8%
- Lym (10 mg/kg, dose level High): 47.8%
- MCH (10 mg/kg, dose level High): 20.7 pg
- MCHC (10 mg/kg, dose level High): 34.3%
- MCV (10 mg/kg, dose level High): 60.5 fL
- Mono (10 mg/kg, dose level High): 2.8%
- Neu (10 mg/kg, dose level High): 47%
- Plat (10 mg/kg, dose level High): 104.8 x10_4/uL
- RBC (10 mg/kg, dose level High): 674.6 x10_4/ul
- Ret (10 mg/kg, dose level High): 8.4%
- WBC (10 mg/kg, dose level High): 101.9 x10_2/uL
- KIDNEY_L (10 mg/kg, dose level High): 1 g
- KIDNEY_R (10 mg/kg, dose level High): 1 g
- KIDNEY_TOTAL (10 mg/kg, dose level High): 2 g
- LIVER (10 mg/kg, dose level High): 9 g
- A/G (10 mg/kg, dose level High): 1
- ALP (10 mg/kg, dose level High): 2013.2 IU/L
- ALT (10 mg/kg, dose level High): 292.6 IU/L
- AST (10 mg/kg, dose level High): 630.8 IU/L
- BUN (10 mg/kg, dose level High): 19.7 mg/dL
- CRE (10 mg/kg, dose level High): 0.2 mg/dL
- Ca (10 mg/kg, dose level High): 10.7 mg/dL
- Cl (10 mg/kg, dose level High): 103.7 meq/L
- DBIL (10 mg/kg, dose level High): 0.094 mg/dL
- GLC (10 mg/kg, dose level High): 153.2 mg/dL
- IP (10 mg/kg, dose level High): 9.1 mg/dL
- K (10 mg/kg, dose level High): 4.1 meq/L
- Na (10 mg/kg, dose level High): 138.9 meq/L
- PL (10 mg/kg, dose level High): 158.2 mg/dL
- RALB (10 mg/kg, dose level High): 2.8 g/dL
- TBIL (10 mg/kg, dose level High): 0.1 mg/dL
- TC (10 mg/kg, dose level High): 87.4 mg/dL
- TG (10 mg/kg, dose level High): 32.9 mg/dL
- TP (10 mg/kg, dose level High): 5.6 g/dL
- gamma-GTP (10 mg/kg, dose level High): 2.9 IU/L
